Reference: PubChem BioAssay AID1963968 (Molecular Pharmacology Branch, DTP, NCI, 2024)

System: 945468-187-T-J3-PDC spheroids with HUVEC/MSC, viability
Assay: Anticancer human tumor 945468-187-T-J3-PDC patient-derived rectal carcinoma cell line growth inhibition [PI3K]
Details: for IC50: curve of first compound; for viability, T/C: stronger effect = lower value
Excerpt: Combinatorial screen of targeted agents with the PI3K inhibitors inavolisib, alpelisib, duvelisib, and copanlisib in multi-cell type tumor spheroids
A high-throughput screen of multi-cell type tumor spheroids was designed to identify active combinations of targeted small molecules and PI3K pathway inhibitors. Complex spheroids include a stromal component modeled by human endothelial cells (HUVEC) and fibroblasts modeled by human mesenchymal stem cells (MSCs). The concentration ranges selected for each drug and investigational agent were based upon clinically achievable concentrations if the clinical Cmax of the agent was known.
Compounds. The drugs and investigational agents: inavolisib (NSC800729), alpelisib (NSC765974), duvelisib (NSC772469), copanlisib (NSC816437), ipatasertib (NSC767898), afuresertib (NSC778305), talazoparib (NSC767125), sapanisertib (NSC764658), selumetinib (NSC741078), tovorafenib (DAY101, NSC766906), vemurafenib (NSC761431), ravoxertinib (NSC781343), sotorasib (NSC818433), MRTX1133 (NSC 836407), abemaciclib (NSC 768073), palbociclib (NSC758247), venetoclax (NSC 766270), SY5609 (NSC837396), enzalutamide (NSC755605), and darolutamide (NSC825331), were obtained from the National Cancer Institute (NCI) Developmental Therapeutics Program Chemical Repository. The FDA-approved anticancer drug set is available from the NCI Developmental Therapeutics Program. […] The stock solutions were prepared in dimethyl sulfoxide (DMSO, Sigma-Aldrich, St. Louis, MO, cat. D2650) at 800-fold the tested concentration and stored at -70 degrees C prior to their use. All drugs and investigational agents were tested over a range starting from a high concentration at or near the clinical Cmax and decreasing in half-log increments. If the clinical Cmax for an agent had not been determined, the highest concentration tested was 10 microM.
Cell Culture. All cells were maintained in an incubator at 37 degrees C and 5% CO2 with 95% humidity. The PDC lines were cultured according to standard operating procedures established by the NCI PDMR (https://pdmr.cancer.gov/sops/default.htm). All PDCs were thawed and cultured in Matrigel-coated flasks prepared with a working solution of 1X Ham's F-12 nutrient mix, without supplementation (Invitrogen, Waltham, MA, cat. 11765054), 100 U/mL penicillin-streptomycin (Invitrogen, cat. 15140122), and 2.5% Matrigel (Corning Inc., Corning, NY, cat. 354248) for the first three passages. The 354836-022-R-J1-PDC, 475296-252-R-J1-PDC, and 997726-040-R-J2-PDC lines were cultured in 6A media, which includes advanced DMEM/F-12 (Thermo Fisher Scientific, cat. 12634028), 10 mM HEPES (Thermo Fisher Scientific, cat. 15630080), 1X GlutaMAX supplement (Thermo Fisher Scientific, cat. 35050061), 0.1 mg/mL primocin (InvivoGen, San Diego, CA, cat. ant-pm-2), 10% defined fetal bovine serum, heat inactivated (HyClone Laboratories Inc., Logan, UT, cat. SH30070.03HI), 50% L-WRN conditioned media (ATCC, cat. CRL-3276), 1.25 mM N-Acetyl-L-cysteine (Sigma-Aldrich, cat. A9165), 10 mM nicotinamide (Sigma-Aldrich, cat. N0636), 1X B-27 supplement (Thermo Fisher Scientific, cat. 17504044), 1X N-2 supplement (Thermo Fisher Scientific, cat. 17502048), and 10 microM Y-27632 dihydrochloride (Tocris Bioscience, Bristol, United Kingdom, cat. 1254). The 624824-186-R-J2-PDC line was cultured in 6C/Colon 1B media, which includes all 6A media components plus 50 ng/mL human EGF recombinant protein (Thermo Fisher Scientific, cat. PHG0311). […]
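Further: spheroids exposed to agents for 7 days before viability read.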
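Wherever viability, T/C is given: 100% = DMSO vehicle control viability.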

`CC(=O)c1c(C)c2cnc(Nc3ccc(N4CCNCC4)cn3)nc2n(C2CCCC2)c1=O` + COc1c(OCCCN2CCOCC2)ccc2c3n(c(=NC(=O)c4cnc(N)nc4)nc12)CCN3 showed an IC50 (second compound 0.00316 µM) of over 100 nM, an IC50 (second compound 0.01 µM) of over 100 nM and an IC50 (second compound 0.0316 µM) of over 100 nM. The IC50 (second compound 0.1 µM) was under 0.316 nM, the IC50 (second compound 0.316 µM) was under 0.316 nM and the IC50 (second compound 1 µM) was under 0.316 nM. The viability, T/C (second compound 0.00316 µM, first compound 0.000316 µM) was 99%, the viability, T/C (second compound 0.00316 µM, first compound 0.001 µM) was 106% and the viability, T/C (second compound 0.00316 µM, first compound 0.00316 µM) was 118%. For the same compound, the viability, T/C (second compound 0.00316 µM, first compound 0.01 µM) was 92.3%, the viability, T/C (second compound 0.00316 µM, first compound 0.0316 µM) was 103% and the viability, T/C (second compound 0.00316 µM, first compound 0.1 µM) was 101%. For the same compound, the viability, T/C (second compound 0.01 µM, first compound 0.000316 µM) was 92.4%, the viability, T/C (second compound 0.01 µM, first compound 0.001 µM) was 87.1% and the viability, T/C (second compound 0.01 µM, first compound 0.00316 µM) was 90.3%. The viability, T/C (second compound 0.01 µM, first compound 0.01 µM) was 97.5%, the viability, T/C (second compound 0.01 µM, first compound 0.0316 µM) was 95.7% and the viability, T/C (second compound 0.01 µM, first compound 0.1 µM) was 104%. For the same compound, the viability, T/C (second compound 0.0316 µM, first compound 0.000316 µM) was 82.9%, the viability, T/C (second compound 0.0316 µM, first compound 0.001 µM) was 90.3% and the viability, T/C (second compound 0.0316 µM, first compound 0.00316 µM) was 89.9%. For the same compound, the viability, T/C (second compound 0.0316 µM, first compound 0.01 µM) was 85.2%, the viability, T/C (second compound 0.0316 µM, first compound 0.0316 µM) was 89% and the viability, T/C (second compound 0.0316 µM, first compound 0.1 µM) was 74.8%. For the same compound, the viability, T/C (second compound 0.1 µM, first compound 0.000316 µM) was 43.1%, the viability, T/C (second compound 0.1 µM, first compound 0.001 µM) was 48.6% and the viability, T/C (second compound 0.1 µM, first compound 0.00316 µM) was 48.7%. The viability, T/C (second compound 0.1 µM, first compound 0.01 µM) was 37.6%, the viability, T/C (second compound 0.1 µM, first compound 0.0316 µM) was 37.9% and the viability, T/C (second compound 0.1 µM, first compound 0.1 µM) was 32.5%. The viability, T/C (second compound 0.316 µM, first compound 0.000316 µM) was 23%, the viability, T/C (second compound 0.316 µM, first compound 0.001 µM) was 20.6% and the viability, T/C (second compound 0.316 µM, first compound 0.00316 µM) was 20%. For the same compound, the viability, T/C (second compound 0.316 µM, first compound 0.01 µM) was 19.2%, the viability, T/C (second compound 0.316 µM, first compound 0.0316 µM) was 19.6% and the viability, T/C (second compound 0.316 µM, first compound 0.1 µM) was 17.6%. The viability, T/C (second compound 1 µM, first compound 0.000316 µM) was 16%, the viability, T/C (second compound 1 µM, first compound 0.001 µM) was 17.7% and the viability, T/C (second compound 1 µM, first compound 0.00316 µM) was 16.7%. It also gave a viability, T/C (second compound 1 µM, first compound 0.01 µM) of 16.2%, a viability, T/C (second compound 1 µM, first compound 0.0316 µM) of 13.6% and a viability, T/C (second compound 1 µM, first compound 0.1 µM) of 14.1%.
